# According to patent publication US20260232713A1, “PLECOMACROLIDE DERIVATIVES FOR MHC-I NEF DOWNMODULATION” (priority 2022, published 2026):
# Where “and” joins values, the source holds several entries; their conditions need not be identical. Equal values may be shown once. Entries after “also recorded” stand apart in the source; their conditions may differ. Read-outs that look alike come from different tables or passages of the source.
# Assays:
# V-ATPase = target: T1, V-ATPase (Homo sapiens, UniProt P27449); assay: Lysosomal acidification (Lysotracker mean fluorescence intensity) as indicator of V-ATPase activity in primary CD4+ T cells; type: cell-based
# T1 construct: endogenous in cells; host or cells: primary CD4+ T cells (HIV ΔGPE infected) from donor PBMCs
# T1 sequence (P27449 whole entry, looked up): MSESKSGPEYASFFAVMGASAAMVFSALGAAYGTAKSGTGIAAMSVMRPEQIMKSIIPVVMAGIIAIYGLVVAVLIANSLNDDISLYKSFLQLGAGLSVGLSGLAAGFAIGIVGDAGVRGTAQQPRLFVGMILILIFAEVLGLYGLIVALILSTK
# Description: (§1) Inhibition of HIV-Nef was measured by assessing its capacity to downmodulate MHC-I HLA-A2 on the surface of primary CD4+ T cells 24-hours after treatment with each compound. V-ATPase inhibition was assessed at the same time point using lysosomal acidification as an indicator of V-ATPase activity. This was measured using a flow cytometric assay that quantified Lysotracker mean fluorescence intensity as previously described (Painter et al., 2020). Cell viability was measured at 24-hour and 72-hour time points using a previously described flow cytometric assay (Painter et al., 2020).
# (§2) Anonymized leukocytes isolated by apheresis were obtained from New York Blood Center and peripheral blood mononuclear cells (PBMCs) were isolated by Ficoll-Paque Plus (17144002; GE Healthcare) centrifugation using SepMate tubes (85450; StemCell Technologies) according to the manufacturers protocol. […] Then, 20-24 hours post-PHA activation, 15 mL of R10/PHA medium is removed and replaced with 5 mL of R10+100u/mL Recombinant Human IL-2 (202|L010; R&D Systems). 48 hours after IL-2 stimulation, primary CD4^+ T cells were infected via spinoculation with previously described HIV ΔGPE construct.
# (§3) 48 hours after spinoculation, cells were pooled and plated in flat bottom 96-well plate. […] Compounds were thawed at room temperature and diluted in R10 medium to 2× starting concentration.
# (§4) All ΔGPE infected cells were collected 24 hours after treatment.
# (§5) All statistical analyses were performed using GraphPad Prism software. Curves were generated using GraphPad Prism software using [Inhibitor] vs. response with variable slope (four parameters).
# primary CD4+ T cells = assay: in vitro; settings: for CC50: read-out: Viability (TC50), mock primary CD4+ T cells, 72 hours after treatment; for Viability:Nef (therapeutic window separating Nef IC50 and TC50): ratio TC50 to Nef IC50
# Description: as §1, §2, §3, §4
# (§6) All Mock cells were collected 72 hours after treatment.
# as §5
# HIV-Nef = target: T2, HIV-Nef (Human immunodeficiency virus type 1, UniProt P03406); assay: Inhibition of HIV-Nef downmodulation of MHC-I HLA-A2 on the surface of HIV ΔGPE infected primary CD4+ T cells (flow cytometry); type: cell-based; settings: for IC50 / Nef (Nef IC50): HLA-A2 surface expression, ΔGPE infected primary CD4+ T cells, 24 hours after treatment
# T2 sequence (P03406 2-206): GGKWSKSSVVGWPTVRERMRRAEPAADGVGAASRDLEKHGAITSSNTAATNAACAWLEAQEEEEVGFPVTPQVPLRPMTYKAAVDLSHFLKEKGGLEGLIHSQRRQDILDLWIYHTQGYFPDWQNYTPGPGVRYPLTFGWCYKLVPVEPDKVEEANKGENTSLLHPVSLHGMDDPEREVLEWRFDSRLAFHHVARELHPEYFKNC
# in vitro = settings: human
# Description: as §1, §2, §3, §4, §6, §5
# [1] = Lysotracker Red, ΔGPE infected primary CD4+ T cells, 24 hours after treatment, read-out: Lysotracker (V-ATPase IC50, lysosomal neutralization)
# [2] = Lysotracker Red, ΔGPE infected primary CD4+ T cells, 24 hours after treatment
Compound,IC50 (V-ATPase),Viability:Nef (therapeutic window separating Nef IC50 and TC50) (primary CD4+ T cells),CC50 (in vitro),also measured
"CC[C@H]1OC(=O)[C@H](C)[C@@H](O)[C@H](C)[C@@H](O)[C@@H](C)C[C@@H](C)C(=O)[C@H](C)[C@@H](O)[C@H]1C [Compound S31, 6-deoxyerythronolide B, reference compound]",–,–,–,IC50 (V-ATPase; [1]): > 1000 nM; CC50 (primary CD4+ T cells): > 1000 nM; IC50 (HIV-Nef): > 1000 nM
"C/C=C/[C@H]1O[C@@H]([C@@H](C)[C@H](O)[C@H](C)[C@H]2OC(=O)/C(OC)=C/C(C)=C/[C@@H](C)[C@@H](O)[C@@H](CC)[C@@H](O)[C@H](C)C/C(C)=C/C=C/[C@@H]2O)C[C@@H](O)[C@@H]1C [Compound S25, 21-Deoxy-16-Hydroxy CMF]",–,–,–,IC50 (V-ATPase; [1]): > 1000 nM; CC50 (primary CD4+ T cells): > 1000 nM; IC50 (HIV-Nef): 400 nM; Fold reduction of activity compared to 6 (HIV-Nef; comparator CMF (6)): over 200 fold
"C/C=C/[C@H]1O[C@@](O)([C@@H](C)[C@H](O)[C@H](C)[C@H]2OC(=O)/C(OC)=C/C(C)=C/[C@@H](C)[C@@H](O)[C@@H](C)[C@@H](O)[C@H](C)C/C(C)=C/C=C/[C@@H]2OC)C[C@@H](O[C@@H]2C[C@H](OC(C)=O)[C@@H](OC(N)=O)[C@H](C)O2)[C@@H]1C [Compound 12, 3′-Acetyl Concanamycin B]",20 nM,8 fold and 8.0 fold,5.3 nM,–
21-Deoxy CMF [Compound S24],–,2.2 fold,–,IC50 (V-ATPase; [1]): 32 nM; CC50 (primary CD4+ T cells): 9.4 nM; IC50 (HIV-Nef): 4.5 nM
CO/C1=C\C(C)=C\[C@@H](C)[C@@H](O)[C@@H](C)C/C(C)=C/C=C/[C@H](OC)[C@@H]([C@@H](C)[C@@H](O)[C@H](C)[C@@]2(O)C[C@@H](OC(C)=O)[C@H](C)C(C(C)C)O2)OC1=O (stereo partly shown) [Compound S9],23 nM,2.4 fold,10 nM,–
CO/C1=C\C(C)=C\[C@@H](C)C(=O)[C@@H](C)C/C(C)=C/C=C/[C@H](OC)[C@@H]([C@@H](C)[C@@H](O)[C@H](C)[C@@]2(O)C[C@@H](O)[C@H](C)[C@@H](C(C)C)O2)OC1=O [Compound S17],> 1000 nM,–,–,"Lysotracker (V-ATPase IC50, lysosomal neutralization) (V-ATPase; [2]): above the activity threshold; CC50 at 72 h (in vitro): > 1000 nM; Nef (Nef IC50) (HIV-Nef): abrogation of activity at all concentrations tested; also recorded: above the activity threshold"
"C/C=C/[C@H]1O[C@@](O)([C@@H](C)[C@H](O)[C@H](C)[C@H]2OC(=O)/C(OC)=C/C(C)=C/[C@@H](C)[C@@H](O)[C@@H](C)[C@@H](OC(C)=O)[C@H](C)C/C(C)=C/C=C/[C@@H]2OC)C[C@@H](O[C@@H]2C[C@H](OC(C)=O)[C@@H](OC(N)=O)[C@H](C)O2)[C@@H]1C [Compound 13, 3′,9-Diacetyl CMB]",38 nM,8.8 fold,8 nM,–
"C[C@@H]1C[C@H](C)C[C@H](C)[C@@H](O)CC(=O)O[C@H]([C@@H]2CCC[C@H]2C(=O)O)C/C=C/C=C(/C#N)[C@H](O)[C@@H](C)C1 [Compound S2, Borrelidin, reference compound]",165 nM,2.0 fold,–,Toxicity at 24 hours (primary CD4+ T cells; 24-hour time point): toxic at 24-hours; CC50 at 72 h (in vitro; mock-infected primary CD4+ T cells): 91 nM
CO/C1=C\C(C)=C\[C@@H](C)[C@@H](O)[C@@H](C)C/C(C)=C/C=C/[C@H](OC)[C@@H]([C@@H](C)[C@@H](O)[C@H](C)[C@H]2C[C@@H](OC)[C@H](C)[C@@H](C(C)C)O2)OC1=O [Compound S6],52 nM,1.4 fold,28 nM,–
"C/C=C/[C@H]1O[C@@](O)([C@@H](C)[C@H](O)[C@H](C)[C@H]2OC(=O)/C(OC)=C/C(C)=C/[C@@H](C)[C@@H](O)[C@@H](C)[C@@H](OC(=O)CCCC)[C@H](C)C/C(C)=C/C=C/[C@@H]2OC)C[C@@H](O[C@@H]2C[C@H](OC(=O)CCCC)[C@@H](OC(N)=O)[C@H](C)O2)[C@@H]1C [Compound 10, 3′,9-Dipentanoate Concanamycin B]",130 nM,5.8 fold,35 nM,–
CO/C1=C\C(C)=C\[C@@H](C)[C@@H](O)[C@@H](C)C/C(C)=C/C=C/[C@H](OC)[C@@H]([C@@H](C)[C@@H](O)[C@H](C)[C@@]2(O)C[C@@H](OC=O)[C@H](C)[C@@H](C(C)C)O2)OC1=O [Compound S61],12 nM,2.6 fold,7.3 nM,–
"C/C=C/[C@H]1O[C@@](O)([C@@H](C)[C@H](O)[C@H](C)[C@H]2OC(=O)/C(OC)=C/C(C)=C/[C@@H](C)[C@@H](O)[C@@H](CC)[C@@H](OC(C)=O)[C@H](C)C/C(C)=C/C=C/[C@@H]2OC)C[C@@H](O[C@@H]2C[C@H](OC(C)=O)[C@@H](OC(N)=O)[C@H](C)O2)[C@@H]1C [Compound 15, 3′,9-diacetyl CMA]",7.9 nM,11 fold,3.9 nM,–
"C/C=C/[C@H]1O[C@@](O)([C@@H](C)[C@H](O)[C@H](C)[C@H]2OC(=O)/C(OC)=C/C(C)=C/[C@@H](C)[C@@H](O)[C@@H](C)[C@@H](O)[C@H](C)C/C(C)=C/C=C/[C@@H]2OC)C[C@@H](O[C@@H]2C[C@H](OC(=O)CCCCCCCC)[C@@H](OC(N)=O)[C@H](C)O2)[C@@H]1C [Compound 11, 3-nonanoate Concanamycin B]",170 nM,4.3 fold,36 nM,–
"CC=CC=CC1OC(O)(C(C)C(O)C(C)C2OC(=O)C(OC)=CC(C)=CC(C)C(O)C(C)CC(C)=CC=CC2OC)CC(OC2CC(O)C(O)C(C)O2)C1C (stereo not shown) [Compound S15, PC-766B, reference compound]",2.5 nM,1.1 fold,1.3 nM,–
"CNC(=O)O[C@@H](CC(C)C)c1nc([C@H]2OC(=O)/C(C)=C/C/C(C)=C/[C@@H](O)[C@@H](C)\C=C(C)/C=C(C)\C=C\[C@@H](O)[C@H](C)[C@H](OC)/C(C)=C/C=C/[C@@H]2C)cs1 [Compound 3, Archazolid A, reference compound]",–,–,–,IC50 (V-ATPase; [1]): 1.6 nM; IC50 (HIV-Nef): 0.47 nM
"Elaiophylin [Compound S16, reference compound]",–,–,–,CC50 (primary CD4+ T cells): 160 nM; IC50 (HIV-Nef): 250 nM; Fold decrease in Nef potency compared to 2 (HIV-Nef; […]): 20 fold
CO/C1=C\C(C)=C\[C@@H](C)C(=O)[C@@H](C)C/C(C)=C/C=C/[C@H](OC)[C@@H]([C@@H](C)[C@@H](O)[C@H](C)[C@@]2(O)CC(=O)[C@H](C)[C@@H](C(C)C)O2)OC1=O [Compound S18],> 1000 nM,–,> 1000 nM,"Lysotracker (V-ATPase IC50, lysosomal neutralization) (V-ATPase; [2]): above the activity threshold; Nef (Nef IC50) (HIV-Nef): above the activity threshold"
"C/C=C/[C@H]1O[C@@](O)([C@@H](C)[C@H](O)[C@H](C)[C@H]2OC(=O)/C(OC)=C/C(C)=C/[C@@H](C)[C@@H](O)[C@@H](CC)[C@@H](O)[C@H](C)C/C(C)=C/C=C/[C@@H]2OC)C[C@@H](O[C@@H]2C[C@H](OC(C)=O)[C@@H](OC(N)=O)[C@H](C)O2)[C@@H]1C [Compound 14, 3′-Acetyl CMA]",3.7 nM,8.5 fold,1.6 nM,–
CO/C1=C\C(C)=C\[C@@H](C)[C@@H](OC(C)=O)[C@@H](C)C/C(C)=C/C=C/[C@H](OC)[C@@H]([C@@H](C)[C@@H](O)[C@H](C)[C@@]2(O)C[C@@H](OC(C)=O)[C@H](C)C(C(C)C)O2)OC1=O (stereo partly shown) [Compound S19],530 nM,1.8 fold,440 nM,–
"C/C=C/[C@H]1O[C@@](O)([C@@H](C)[C@H](O)[C@H](C)[C@H]2OC(=O)/C(OC)=C/C(C)=C/[C@@H](C)[C@@H](O)[C@@H](C)[C@@H](O)[C@H](C)C/C(C)=C/C=C/[C@@H]2OC)C[C@@H](O[C@@H]2C[C@H](OC(=O)CCCC)[C@@H](OC(N)=O)[C@H](C)O2)[C@@H]1C [Compound 9, 3-pentanoate Concanamycin B]",110 nM,7.9 fold,27 nM,–
"CC=CC1OC(O)(C(C)C(O)C(C)C2OC(=O)C(OC)=CC(C)=CC(C)C(O)C(C)C(O)C(C)CC(C)=CC=CC2OC)CC(OC2CC(O)C(OC(N)=O)C(C)O2)C1C (stereo not shown) [Compound 4, concanamycin B, reference compound]",26 nM,5 fold and 5.5 fold,7 nM,–
